Measurements: patent publication US12209081B2 (Katholieke Universiteit Leuven, priority 2020, dated 2025)

Biological target: mouse TRPM3α2 (mTRPM3) ion channel (Mus musculus (Mouse), UniProt J9SQF3)
Test: TRPM3 ion channel driven Ca2+ uptake, Fluo-4 AM assay, mTRPM3alpha2 overexpressing flip-in HEK293 cells stimulated with pregnenolone sulfate
Assay type: cell-based
Description: Part B Monitoring the TRPM3 Ion Channel Driven Ca^2+ Uptake.
In order to monitor the inhibition of the mouse TRPM3α2 (mTRPM3) ion channel by the compounds of the invention, a cellular system making use of an mTRPM3alpha2 or hTRPM3 overexpressing cell line (flip-in HEK293) was used. The TRPM3 channel was stimulated/opened with Pregnenolone sulfate (PS) (50 μM) which results in Ca^2+ influx.
For mTRPM3, the intracellular Ca^2+ was measured with a Calcium responsive dye. Fluor-4 AM ester (Invitrogen). Cells were cultured until a confluence of 80-90%, washed with Versene (Invitrogen) and detached from the surface by a short incubation with 0.05% Trypsin (Invitrogen). The trypsination process was stopped by the addition of complete cell culture medium (DMEM, glutamax, 10% FCS,NEAA,Pen-Strep). Cells were collected and resuspended in Krebs buffer without Calcium at RT.
Prior the cell seeding (±2000 cells/well into a black, 384 well plate (Greiner)) the diluted compound was added in the assay plate, together with the PS dissolved in Krebs buffer containing Calcium. […] Directly after cell addition the plates were read on an Envision fluorescence reader (Perkin Elmer) by an Excitation of 485 nm and emission at 535 nm.
Channel inhibition was calculated compared to a non-PS stimulated control versus a condition stimulated with PS (50 μM) with vehicle. The ability of the compounds of the invention to inhibit this activity was determined as: Percentage inhibition=[1-((RFU determined for sample with test compound present—RFU determined for sample with positive control inhibitor) divided by (RFU determined in the presence of vehicle—RFU determined for sample with positive control inhibitor))]*100.

[1] = PS (50 μM) stimulated, cpds. 500-599
[2] = PS (50 μM) stimulated, cpds. 608-666
[3] = PS (50 μM) stimulated, cpd 001-199
[4] = PS (50 μM) stimulated, cpds. 667-751
[5] = PS (50 μM) stimulated, cpds. 400-499

Sequence of mouse TRPM3α2 (mTRPM3) ion channel (J9SQF3 other isoform, or with tags, fused parts or gaps): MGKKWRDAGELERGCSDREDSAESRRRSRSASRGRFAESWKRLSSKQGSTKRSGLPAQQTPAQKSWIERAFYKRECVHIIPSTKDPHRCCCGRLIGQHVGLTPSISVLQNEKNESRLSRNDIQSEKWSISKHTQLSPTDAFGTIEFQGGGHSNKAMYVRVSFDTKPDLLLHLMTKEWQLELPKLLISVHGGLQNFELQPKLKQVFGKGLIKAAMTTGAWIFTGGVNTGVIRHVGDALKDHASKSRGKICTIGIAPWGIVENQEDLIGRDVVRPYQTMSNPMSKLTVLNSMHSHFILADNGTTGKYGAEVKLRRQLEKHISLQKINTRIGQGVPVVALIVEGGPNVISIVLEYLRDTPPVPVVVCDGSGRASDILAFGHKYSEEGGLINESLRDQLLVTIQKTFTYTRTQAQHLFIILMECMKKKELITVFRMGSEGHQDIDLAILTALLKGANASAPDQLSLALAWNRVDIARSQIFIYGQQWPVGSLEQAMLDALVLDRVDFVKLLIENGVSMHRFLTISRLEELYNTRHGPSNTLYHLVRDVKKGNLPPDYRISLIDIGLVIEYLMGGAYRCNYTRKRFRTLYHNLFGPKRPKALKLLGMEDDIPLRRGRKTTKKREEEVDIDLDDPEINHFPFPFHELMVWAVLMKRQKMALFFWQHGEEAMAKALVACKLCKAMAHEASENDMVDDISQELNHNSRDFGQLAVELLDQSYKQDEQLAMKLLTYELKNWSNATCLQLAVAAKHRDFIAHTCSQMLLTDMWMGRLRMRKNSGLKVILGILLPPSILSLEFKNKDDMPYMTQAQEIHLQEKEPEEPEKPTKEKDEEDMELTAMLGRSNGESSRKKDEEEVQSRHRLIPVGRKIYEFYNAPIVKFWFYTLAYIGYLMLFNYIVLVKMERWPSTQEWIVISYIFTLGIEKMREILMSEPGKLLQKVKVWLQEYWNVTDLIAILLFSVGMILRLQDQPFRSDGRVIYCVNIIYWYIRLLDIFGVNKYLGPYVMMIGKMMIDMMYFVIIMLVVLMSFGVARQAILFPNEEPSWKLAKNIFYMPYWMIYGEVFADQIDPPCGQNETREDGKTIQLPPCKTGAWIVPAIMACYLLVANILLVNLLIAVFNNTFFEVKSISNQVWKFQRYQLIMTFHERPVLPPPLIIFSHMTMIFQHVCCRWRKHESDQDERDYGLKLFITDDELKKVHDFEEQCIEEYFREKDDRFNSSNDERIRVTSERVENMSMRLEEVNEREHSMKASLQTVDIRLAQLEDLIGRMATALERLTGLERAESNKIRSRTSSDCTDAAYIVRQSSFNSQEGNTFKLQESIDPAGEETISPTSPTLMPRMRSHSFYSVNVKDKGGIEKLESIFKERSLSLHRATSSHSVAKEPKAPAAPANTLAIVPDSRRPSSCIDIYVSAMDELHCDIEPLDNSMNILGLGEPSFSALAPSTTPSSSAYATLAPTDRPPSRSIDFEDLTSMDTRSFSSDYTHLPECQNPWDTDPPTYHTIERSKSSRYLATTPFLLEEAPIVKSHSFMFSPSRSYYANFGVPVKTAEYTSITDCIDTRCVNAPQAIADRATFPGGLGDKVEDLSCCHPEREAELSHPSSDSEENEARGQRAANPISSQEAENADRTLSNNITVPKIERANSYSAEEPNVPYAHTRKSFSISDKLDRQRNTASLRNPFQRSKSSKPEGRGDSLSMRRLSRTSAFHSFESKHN

SMILES: Cc1nccc(COc2ccc3oc(C)c(C(=O)NC4CCNCC4(F)F)c3c2)n1 (single isomer, unassigned) [cpd 548-En 1]
- IC50 [1]: 1 to 20 µM

SMILES: Cc1ncc(COc2ccc3oc(C)c(C(=O)NC4(CO)CCOC4)c3c2)s1 (single isomer, unassigned) [cpd 533-En 1]
- IC50 [1]: < 1 µM

SMILES: Cc1ncccc1COc1ccc2oc(C)c(C(=O)NC3(CO)CCOCC3)c2c1 [compound 611, N-(4-(hydroxymethyl)tetrahydro-2H-pyran-4-yl)-2-methyl-5-((2-methylpyridin-3-yl)methoxy)benzofuran-3-carboxamide]
- IC50 [2]: < 1 µM

SMILES: Cc1oc2ccc(OCc3ccsc3)cc2c1C(=O)NC1CCNC1=O (stereo not drawn) [compound 035, 2-methyl-N-(2-oxopyrrolidin-3-yl) -5-(thiophen-3-ylmethoxy)benzofuran-3-carboxamide]
- IC50 [3]: < 1 µM

SMILES: Cc1oc2ccc(OCc3ccc(OCCO)cn3)cc2c1C(=O)NC1(CO)CCOCC1 [compound 358, 5-((5-(2-hydroxyethoxy)pyridin-2-yl)methoxy)-N-(4-(hydroxymethyl)tetrahydro-2H-pyran-4-yl) -2-methylbenzofuran-3-carboxamide]
- IC50 (PS 50 μM, cpds 300-399): > 20 µM

SMILES: COc1ncccc1COc1ccc2oc(C)c(C(=O)NC3(CO)COC3)c2c1 [compound 528, N-(3-(hydroxymethyl)oxetan-3-yl)-5-((2-methoxypyridin-3-yl)methoxy)-2-methylbenzofuran-3-carboxamide]
- IC50 [1]: < 1 µM

SMILES: Cc1ncc(COc2ccc3oc(C)c(C(=O)NC4CCOCC4(F)F)c3c2)s1 (single isomer, unassigned) [cpd 724-En 2]
- IC50 [4]: 1 to 20 µM

SMILES: Cc1ncsc1COc1ccc2oc(C)c(C(=O)NCC3(F)CCOCC3)c2c1 [compound 394, N-((4-fluorotetrahydro-2H-pyran-4-yl)methyl)-2-methyl-5-((4-methylthiazol-5-yl)methoxy)benzofuran-3-carboxamide]
- IC50 (PS 50 μM, cpds 300-399): < 1 µM

SMILES: COc1cccc(COc2ccc3oc(C)c(C(=O)NC4CCNCC4(F)F)c3c2)n1 (single isomer, unassigned) [cpd 570-En 1]
- IC50 [1]: < 1 µM

SMILES: Cc1ncc(COc2ccc3oc(C)c(C(=O)NC(C)(C)C(N)=O)c3c2)s1 [compound 439, N-(1-amino-2-methyl-1-oxopropan-2-yl)-2-methyl-5-((2-methylthiazol-5-yl)methoxy)benzofuran-3-carboxamide]
- IC50 [5]: < 1 µM

SMILES: Cc1oc2ccc(OCc3cccc(O)n3)cc2c1C(=O)NC1(CO)CCOCC1 [compound 630, N-(4-(hydroxymethyl)tetrahydro-2H-pyran-4-yl)-5-((6-hydroxypyridin-2-yl)methoxy)-2-methylbenzofuran-3-carboxamide]
- IC50 [2]: > 20 µM

SMILES: Cc1nc(C)c(COc2ccc3oc(C)c(C(=O)NC4(CO)CCOCC4)c3c2)s1 [compound 345, 5-((2,4-dimethylthiazol-5-yl)methoxy)-N-(4-(hydroxymethyl)tetrahydro-2H-pyran-4-yl)-2-methylbenzofuran-3-carboxamide]
- IC50 (PS 50 μM, cpds 300-399): < 1 µM

SMILES: Cc1ncc(COc2ccc3oc(C)c(C(=O)NC4COCC4(F)F)c3c2)s1 (single isomer, unassigned) [cpd 643-En 1]
- IC50 [2]: < 1 µM

SMILES: Cc1ncsc1COc1cc2c(C(=O)NC3(CO)CCOCC3)c(C)oc2cc1C#N [compound 194, 6-cyano-N-(4-(hydroxymethyl)tetrahydro-2H-pyran-4-yl)-2-methyl-5-((4-methylthiazol-5-yl) -methoxy)benzofuran-3-carboxamide]
- IC50 [3]: > 20 µM

SMILES: Cc1oc2ccc(OCc3ccccn3)cc2c1C(=O)NC1(CO)CCOCC1 [compound 047, N-(4-(hydroxymethyl)tetrahydro-2H-pyran-4-yl)-2-methyl-5-(pyridin-2-ylmethoxy)benzofuran-3-carboxamide]
- IC50 [3]: < 1 µM

SMILES: Cc1ncsc1COc1ccc2oc(C)c(C(=O)NC3(CCO)COC3)c2c1 [compound 128, N-(3-(2-hydroxyethyl)oxetan-3-yl)-2-methyl-5-((4-methylthiazol-5-yl)methoxy)benzofuran-3-carboxamide]
- IC50 [3]: < 1 µM

SMILES: Cc1ccncc1COc1ccc2oc(C)c(C(=O)N[C@@H](CO)C(N)=O)c2c1 [compound 287]
- IC50 (PS 50 μM, cpds 200-299): < 1 µM

SMILES: Cc1ncsc1COc1ccc2oc(C)c(C(=O)NC3(CNCC(F)(F)F)CCC3)c2c1 [compound 145, 2-methyl-5-((4-methylthiazol-5-yl)methoxy)-N-(1-(((2,2,2-trifluoroethyl)amino)methyl)cyclobutyl) -benzofuran-3-carboxamide]
- IC50 [3]: < 1 µM

SMILES: Cc1oc2ccc(OCc3cccnc3)cc2c1C(=O)N[C@H]1CCNC1 [compound 022, (S)-2-methyl-5-(pyridin-3-ylmethoxy)-N-(pyrrolidin-3-yl)benzofuran-3-carboxamide]
- IC50 [3]: < 1 µM

SMILES: Cc1oc2ccc(OCc3ncccn3)cc2c1C(=O)N[C@@H](CO)C(N)=O [compound 712, (S)-N-(1-Amino-3-hydroxy-1-oxopropan-2-yl)-2-methyl-5-(pyrimidin-2-ylmethoxy)benzofuran-3-carboxamide]
- IC50 [4]: < 1 µM

SMILES: Cc1oc2ccc(OCc3ccc[nH]c3=O)cc2c1C(=O)NC1(CO)CCOCC1 [compound 614, N-(4-(hydroxymethyl)tetrahydro-2H-pyran-4-yl)-2-methyl-5-((2-oxo-1,2-dihydropyridin-3-yl)methoxy)benzofuran-3-carboxamide]
- IC50 [2]: < 1 µM

SMILES: Cc1oc2ccc(OCc3ccnn3C)cc2c1C(=O)NC(C)(CO)CO [compound 423, N-(1,3-dihydroxy-2-methylpropan-2-yl)-2-methyl-5-((1-methyl-1H-pyrazol-5-yl)methoxy)benzofuran-3-carboxamide]
- IC50 [5]: < 1 µM

SMILES: COc1ncccc1COc1ccc2oc(C)c(C(=O)NC3(C(N)=O)COC3)c2c1 [compound 586, N-(3-carbamoyloxetan-3-yl)-5-((2-methoxypyridin-3-yl)methoxy)-2-methylbenzofuran-3-carboxamide]
- IC50 [1]: < 1 µM

SMILES: Cc1ncsc1COc1ccc2oc(C)c(C(=O)NCC(F)F)c2c1 [compound 498, N-(2,2-difluoroethyl)-2-methyl-5-((4-methylthiazol-5-yl)methoxy)benzofuran-3-carboxamide]
- IC50 [5]: < 1 µM

SMILES: Cc1ncc(COc2ccc3oc(C(F)F)c(C(=O)N[C@@H](CO)C(N)=O)c3c2)s1 [compound 745, (S)-N-(1-amino-3-hydroxy-1-oxopropan-2-yl)-2-(difluoromethyl)-5-((2-methylthiazol-5-yl)methoxy)benzofuran-3-carboxamide]
- IC50 [4]: < 1 µM

SMILES: Cc1oc2ccc(OCc3cccnc3O)cc2c1C(=O)NC(C)(CO)CO [compound 430, N-(1,3-dihydroxy-2-methylpropan-2-yl)-5-((2-hydroxypyridin-3-yl)methoxy)-2-methylbenzofuran-3-carboxamide]
- IC50 [5]: < 1 µM

SMILES: Cc1oc2ccc(OCc3ncn(C)n3)cc2c1C(=O)NC1CCNCC1(F)F (single isomer, unassigned) [cpd 542-En 1]
- IC50 [1]: 1 to 20 µM

SMILES: Cc1coc(COc2ccc3oc(C)c(C(=O)NC4CCNCC4(F)F)c3c2)n1 (single isomer, unassigned) [cpd 551-En 1]
- IC50 [1]: < 1 µM

SMILES: Cc1ncsc1COc1ccc2oc(C)c(C(=O)NC3(CO)CCC3)c2c1 [compound 107, N-(1-(hydroxymethyl)cyclobutyl)-2-methyl-5-((4-methylthiazol-5-yl)methoxy)benzofuran-3-carboxamide]
- IC50 [3]: < 1 µM

SMILES: Cc1ncsc1COc1ccc2oc(C)c(C(=O)NC3(C(=O)N(C)C)COC3)c2c1 [compound 509, N-(3-(dimethylcarbamoyl)oxetan-3-yl)-2-methyl-5-((4-methylthiazol-5-yl)methoxy)benzofuran-3-carboxamide]
- IC50 [1]: < 1 µM
